The values that follow come from US20240110130A1, “COMPOSITION” (Conopco, Inc., d/b/a UNILEVER, priority 2021, published 2024).

The structures appear in SMILES notation.

A short description of the series: Colour measurement (yellowing) of liquid laundry compositions comprising DHA. It counts as physicochemical. Conditions: added to laundry liquid comprising DHA salt.

For the molecule `O=S([O-])[O-].[K+].[K+]` [sulphite, Potassium Sulfite], the effect on yellowing entry was “reduces yellowing”.
